Measurements published in patent publication US20100242139A1, “XENOHORMESIS BASED COMPOSITIONS AND METHODS” (President and Fellows of Harvard College, priority 2006, published 2010).

Columns and labels:
Format in all cases: biochemical
CDK1/cyclinB(h) = CDK1/cyclinB(h) (Homo sapiens, UniProt P06493); assay: kinase panel activity, CDK1/cyclinB(h); settings: compound at 20 μM; vs reference with no compound
CDK2/cyclinA(h) = CDK2/cyclinA(h) (Homo sapiens, UniProt P24941); assay: kinase panel activity, CDK2/cyclinA(h); settings: compound at 20 μM; vs reference with no compound
CDK2/cyclinE(h) = CDK2/cyclinE(h) (Homo sapiens, UniProt P24941); assay: kinase panel activity, CDK2/cyclinE(h); settings: compound at 20 μM; vs reference with no compound
CDK5/p25(h) = CDK5/p25(h) (Homo sapiens, UniProt Q00535); assay: kinase panel activity, CDK5/p25(h); settings: compound at 20 μM; vs reference with no compound
CDK5/p35(h) = CDK5/p35(h) (Homo sapiens, UniProt Q00535); assay: kinase panel activity, CDK5/p35(h); settings: compound at 20 μM; vs reference with no compound
CDK6/cyclinD3(h) = CDK6/cyclinD3(h) (Homo sapiens, UniProt Q00534); assay: kinase panel activity, CDK6/cyclinD3(h); settings: compound at 20 μM; vs reference with no compound
CHK2(h) = CHK2(h) (Homo sapiens, UniProt O96017); assay: kinase panel activity, CHK2(h); settings: compound at 20 μM; vs reference with no compound
cKit(h) = cKit(h) (Homo sapiens, UniProt P10721); assay: kinase panel activity, cKit(h); settings: compound at 20 μM; vs reference with no compound
CSK(h) = CSK(h) (Homo sapiens, UniProt P41240); assay: kinase panel activity, CSK(h); settings: compound at 20 μM; vs reference with no compound
cSRC(h) = cSRC(h) (Homo sapiens, UniProt P12931); assay: kinase panel activity, cSRC(h); settings: compound at 20 μM; vs reference with no compound
EGFR(h) = EGFR(h) (Homo sapiens, UniProt P00533); assay: kinase panel activity, EGFR(h); settings: compound at 20 μM; vs reference with no compound
FGFR1(h) = FGFR1(h) (Homo sapiens, UniProt P11362); assay: kinase panel activity, FGFR1(h); settings: compound at 20 μM; vs reference with no compound
Fgr(h) = Fgr(h) (Homo sapiens, UniProt P09769); assay: kinase panel activity, Fgr(h); settings: compound at 20 μM; vs reference with no compound
Flt1(h) = Flt1(h) (Homo sapiens, UniProt P17948); assay: kinase panel activity, Flt1(h); settings: compound at 20 μM; vs reference with no compound
Fms(h) = Fms(h) (Homo sapiens, UniProt P07333); assay: kinase panel activity, Fms(h); settings: compound at 20 μM; vs reference with no compound
IKKα(h) = IKKα(h) (Homo sapiens, UniProt O15111); assay: kinase panel activity, IKKα(h); settings: compound at 20 μM; vs reference with no compound
IKKβ(h) = IKKβ(h) (Homo sapiens, UniProt O14920); assay: kinase panel activity, IKKβ(h); settings: compound at 20 μM; vs reference with no compound
JNK1α1(h) = JNK1α1(h) (Homo sapiens, UniProt P45983); assay: kinase panel activity, JNK1α1(h); settings: compound at 20 μM; vs reference with no compound
JNK3(h) = JNK3(h) (Homo sapiens, UniProt P53779); assay: kinase panel activity, JNK3(h); settings: compound at 20 μM; vs reference with no compound
Chain of JNK3(h) (P53779 whole entry): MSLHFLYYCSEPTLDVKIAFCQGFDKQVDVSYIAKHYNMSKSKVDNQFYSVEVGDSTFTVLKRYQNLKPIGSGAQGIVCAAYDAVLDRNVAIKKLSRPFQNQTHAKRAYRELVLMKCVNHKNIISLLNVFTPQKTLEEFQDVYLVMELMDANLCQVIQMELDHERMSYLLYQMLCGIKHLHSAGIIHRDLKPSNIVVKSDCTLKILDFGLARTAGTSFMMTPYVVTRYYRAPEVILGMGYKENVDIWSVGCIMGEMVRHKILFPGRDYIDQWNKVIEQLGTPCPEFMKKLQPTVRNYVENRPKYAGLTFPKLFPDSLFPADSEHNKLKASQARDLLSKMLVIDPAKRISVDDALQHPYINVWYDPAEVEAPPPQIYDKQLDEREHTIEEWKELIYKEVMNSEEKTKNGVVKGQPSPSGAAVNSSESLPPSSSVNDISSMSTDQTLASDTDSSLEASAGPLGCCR

LIMK1(h) = LIMK1(h) (Homo sapiens, UniProt P53667); assay: kinase panel activity, LIMK1(h); settings: compound at 20 μM; vs reference with no compound
Chain of LIMK1(h) (P53667 whole entry): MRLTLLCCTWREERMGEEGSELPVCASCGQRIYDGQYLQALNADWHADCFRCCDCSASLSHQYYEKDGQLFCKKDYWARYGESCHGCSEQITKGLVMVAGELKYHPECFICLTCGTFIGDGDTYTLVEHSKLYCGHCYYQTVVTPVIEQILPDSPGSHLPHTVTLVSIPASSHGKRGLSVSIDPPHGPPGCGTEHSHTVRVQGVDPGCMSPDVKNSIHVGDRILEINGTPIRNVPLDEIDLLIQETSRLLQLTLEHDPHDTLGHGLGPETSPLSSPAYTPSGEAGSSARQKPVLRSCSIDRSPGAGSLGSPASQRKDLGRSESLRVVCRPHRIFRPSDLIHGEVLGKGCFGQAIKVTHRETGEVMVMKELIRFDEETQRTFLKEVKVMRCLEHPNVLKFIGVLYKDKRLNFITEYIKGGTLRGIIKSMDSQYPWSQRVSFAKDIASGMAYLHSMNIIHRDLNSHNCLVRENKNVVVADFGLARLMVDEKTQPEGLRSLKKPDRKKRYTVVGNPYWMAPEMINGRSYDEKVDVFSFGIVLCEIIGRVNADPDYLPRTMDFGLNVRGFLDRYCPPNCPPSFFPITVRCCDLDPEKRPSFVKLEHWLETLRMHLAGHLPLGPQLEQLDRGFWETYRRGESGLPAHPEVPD

MAPK1(h) = MAPK1(h) (Homo sapiens, UniProt P27361); assay: kinase panel activity, MAPK1(h); settings: compound at 20 μM; vs reference with no compound
MAPK2(h) = MAPK2(h) (Homo sapiens, UniProt P28482); assay: kinase panel activity, MAPK2(h); settings: compound at 20 μM; vs reference with no compound
MEK1(h) = MEK1(h) (Homo sapiens, UniProt Q02750); assay: kinase panel activity, MEK1(h); settings: compound at 20 μM; vs reference with no compound
MST2(h) = MST2(h) (Homo sapiens, UniProt Q13188); assay: kinase panel activity, MST2(h); settings: compound at 20 μM; vs reference with no compound
Chain of MST2(h) (Q13188 whole entry): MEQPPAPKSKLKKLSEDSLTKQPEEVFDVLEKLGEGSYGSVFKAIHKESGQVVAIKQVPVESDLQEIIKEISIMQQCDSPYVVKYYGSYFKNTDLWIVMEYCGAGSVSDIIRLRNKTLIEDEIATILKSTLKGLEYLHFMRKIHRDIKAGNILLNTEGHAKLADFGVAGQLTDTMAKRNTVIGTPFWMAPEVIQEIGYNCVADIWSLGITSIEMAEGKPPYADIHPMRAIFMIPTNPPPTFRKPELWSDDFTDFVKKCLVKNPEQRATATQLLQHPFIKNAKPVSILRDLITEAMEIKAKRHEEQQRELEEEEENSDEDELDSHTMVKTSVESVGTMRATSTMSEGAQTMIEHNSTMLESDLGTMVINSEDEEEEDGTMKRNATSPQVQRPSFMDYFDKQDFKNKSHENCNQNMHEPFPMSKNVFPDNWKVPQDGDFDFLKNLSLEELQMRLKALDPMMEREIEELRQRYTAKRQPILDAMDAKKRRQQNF

NEK2(h) = NEK2(h) (Homo sapiens, UniProt P51955); assay: kinase panel activity, NEK2(h); settings: compound at 20 μM; vs reference with no compound
NEK7(h) = NEK7(h) (Homo sapiens, UniProt Q8TDX7); assay: kinase panel activity, NEK7(h); settings: compound at 20 μM; vs reference with no compound
Chain of NEK7(h) (Q8TDX7 whole entry): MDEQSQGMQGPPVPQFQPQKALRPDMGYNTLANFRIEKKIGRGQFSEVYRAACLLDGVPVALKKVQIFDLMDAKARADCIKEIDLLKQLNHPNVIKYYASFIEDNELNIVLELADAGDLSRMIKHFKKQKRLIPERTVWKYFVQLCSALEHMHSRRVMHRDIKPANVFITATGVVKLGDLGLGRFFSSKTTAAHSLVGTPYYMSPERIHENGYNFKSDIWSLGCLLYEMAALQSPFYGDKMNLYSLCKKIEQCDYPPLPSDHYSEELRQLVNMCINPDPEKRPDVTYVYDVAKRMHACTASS

NLK(h) = NLK(h) (Homo sapiens, UniProt Q9UBE8); assay: kinase panel activity, NLK(h); settings: compound at 20 μM; vs reference with no compound
Chain of NLK(h) (Q9UBE8 whole entry): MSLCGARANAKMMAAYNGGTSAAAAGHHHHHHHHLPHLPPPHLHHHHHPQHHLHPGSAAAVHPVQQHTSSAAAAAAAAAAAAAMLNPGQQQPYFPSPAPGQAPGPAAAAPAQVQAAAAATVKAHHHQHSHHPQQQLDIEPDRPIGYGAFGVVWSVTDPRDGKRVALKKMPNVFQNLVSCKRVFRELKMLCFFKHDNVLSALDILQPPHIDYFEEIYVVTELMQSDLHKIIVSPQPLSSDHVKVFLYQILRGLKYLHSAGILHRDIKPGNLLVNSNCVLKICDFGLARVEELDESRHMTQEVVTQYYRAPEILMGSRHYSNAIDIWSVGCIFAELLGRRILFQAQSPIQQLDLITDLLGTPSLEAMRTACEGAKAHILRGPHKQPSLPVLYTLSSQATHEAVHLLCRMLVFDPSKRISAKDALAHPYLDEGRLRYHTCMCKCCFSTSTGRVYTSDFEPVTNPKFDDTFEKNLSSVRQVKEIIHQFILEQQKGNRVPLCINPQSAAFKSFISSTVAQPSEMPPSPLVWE

p70S6K(h) = p70S6K(h) (Homo sapiens, UniProt P23443); assay: kinase panel activity, p70S6K(h); settings: compound at 20 μM; vs reference with no compound
PAK6(h) = PAK6(h) (Homo sapiens, UniProt Q9NQU5); assay: kinase panel activity, PAK6(h); settings: compound at 20 μM; vs reference with no compound
Pim-2(h) = Pim-2(h) (Homo sapiens, UniProt Q9P1W9); assay: kinase panel activity, Pim-2(h); settings: compound at 20 μM; vs reference with no compound
Chain of Pim-2(h) (Q9P1W9 whole entry): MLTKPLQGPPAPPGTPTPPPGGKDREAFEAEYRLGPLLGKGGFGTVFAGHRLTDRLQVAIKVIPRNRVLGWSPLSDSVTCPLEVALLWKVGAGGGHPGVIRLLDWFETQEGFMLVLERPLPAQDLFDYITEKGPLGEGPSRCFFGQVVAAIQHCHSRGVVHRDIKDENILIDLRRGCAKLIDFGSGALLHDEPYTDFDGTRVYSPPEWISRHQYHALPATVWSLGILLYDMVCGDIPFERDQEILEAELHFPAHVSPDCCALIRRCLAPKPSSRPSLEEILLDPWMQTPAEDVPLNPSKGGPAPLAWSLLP

PKG1β(h) = PKG1β(h) (Homo sapiens, UniProt Q13976); assay: kinase panel activity, PKG1β(h); settings: compound at 20 μM; vs reference with no compound
Rsk2(h) = Rsk2(h) (Homo sapiens, UniProt P51812); assay: kinase panel activity, Rsk2(h); settings: for percent activity of Rsk2(h): compound at 20 μM, vs reference with no compound
Chain of Rsk2(h) (P51812 whole entry): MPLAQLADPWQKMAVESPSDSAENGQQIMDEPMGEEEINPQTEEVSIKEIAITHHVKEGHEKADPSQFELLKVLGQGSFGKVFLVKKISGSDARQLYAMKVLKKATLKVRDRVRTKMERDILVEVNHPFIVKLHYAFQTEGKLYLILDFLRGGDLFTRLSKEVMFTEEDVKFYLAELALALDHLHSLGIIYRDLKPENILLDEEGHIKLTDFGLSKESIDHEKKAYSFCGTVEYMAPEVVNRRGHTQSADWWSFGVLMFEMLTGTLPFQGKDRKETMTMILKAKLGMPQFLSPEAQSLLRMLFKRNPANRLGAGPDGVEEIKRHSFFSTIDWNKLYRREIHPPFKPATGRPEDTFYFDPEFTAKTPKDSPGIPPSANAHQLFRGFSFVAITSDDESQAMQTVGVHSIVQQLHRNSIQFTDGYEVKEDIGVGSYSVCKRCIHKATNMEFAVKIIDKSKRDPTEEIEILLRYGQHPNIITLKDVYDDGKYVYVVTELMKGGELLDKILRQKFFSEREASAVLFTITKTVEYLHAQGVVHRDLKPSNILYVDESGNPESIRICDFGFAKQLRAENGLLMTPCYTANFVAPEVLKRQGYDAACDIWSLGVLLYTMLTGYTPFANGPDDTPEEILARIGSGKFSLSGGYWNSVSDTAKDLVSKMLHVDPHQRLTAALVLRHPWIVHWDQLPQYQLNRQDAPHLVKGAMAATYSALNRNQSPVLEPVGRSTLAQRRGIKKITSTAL

SAPK2a(h) = SAPK2a(h) (Homo sapiens, UniProt Q16539); assay: kinase panel activity, SAPK2a(h); settings: compound at 20 μM; vs reference with no compound
Chain of SAPK2a(h) (Q16539 whole entry): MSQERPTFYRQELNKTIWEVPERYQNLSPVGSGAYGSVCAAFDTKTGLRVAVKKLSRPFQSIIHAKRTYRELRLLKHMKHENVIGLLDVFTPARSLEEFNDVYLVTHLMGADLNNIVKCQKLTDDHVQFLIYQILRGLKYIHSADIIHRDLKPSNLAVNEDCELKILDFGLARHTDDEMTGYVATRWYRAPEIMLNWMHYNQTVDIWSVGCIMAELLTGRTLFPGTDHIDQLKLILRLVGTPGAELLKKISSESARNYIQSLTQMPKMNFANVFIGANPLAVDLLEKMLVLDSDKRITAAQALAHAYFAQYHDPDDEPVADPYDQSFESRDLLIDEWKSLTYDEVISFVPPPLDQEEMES

SAPK3(h) = SAPK3(h) (Homo sapiens, UniProt P53778); assay: kinase panel activity, SAPK3(h); settings: compound at 20 μM; vs reference with no compound
SAPK4(h) = SAPK4(h) (Homo sapiens, UniProt O15264); assay: kinase panel activity, SAPK4(h); settings: compound at 20 μM; vs reference with no compound
SGK2(h) = SGK2(h) (Homo sapiens, UniProt Q9HBY8); assay: kinase panel activity, SGK2(h); settings: compound at 20 μM; vs reference with no compound
Chain of SGK2(h) (Q9HBY8 whole entry): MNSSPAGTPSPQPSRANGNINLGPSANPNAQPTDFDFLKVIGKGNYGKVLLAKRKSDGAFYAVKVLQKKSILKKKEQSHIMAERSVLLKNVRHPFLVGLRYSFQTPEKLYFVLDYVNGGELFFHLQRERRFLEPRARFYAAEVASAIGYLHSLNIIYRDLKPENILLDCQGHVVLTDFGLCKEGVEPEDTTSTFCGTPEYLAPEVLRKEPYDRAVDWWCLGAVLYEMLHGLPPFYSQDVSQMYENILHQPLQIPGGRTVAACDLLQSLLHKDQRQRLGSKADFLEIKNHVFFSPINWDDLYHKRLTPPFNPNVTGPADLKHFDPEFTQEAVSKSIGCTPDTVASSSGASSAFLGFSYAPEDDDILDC

Snk(h) = Snk(h) (Homo sapiens, UniProt Q9NYY3); assay: kinase panel activity, Snk(h); settings: compound at 20 μM; vs reference with no compound
TBK1(h) = TBK1(h) (Homo sapiens, UniProt Q9UHD2); assay: kinase panel activity, TBK1(h); settings: compound at 20 μM; vs reference with no compound
Tie2(h) = Tie2(h) (Homo sapiens, UniProt Q02763); assay: kinase panel activity, Tie2(h); settings: compound at 20 μM; vs reference with no compound
ZAP-70(h) = ZAP-70(h) (Homo sapiens, UniProt P43403); assay: kinase panel activity, ZAP-70(h); settings: compound at 20 μM; vs reference with no compound

Chain of CDK1/cyclinB(h) (P06493 whole entry): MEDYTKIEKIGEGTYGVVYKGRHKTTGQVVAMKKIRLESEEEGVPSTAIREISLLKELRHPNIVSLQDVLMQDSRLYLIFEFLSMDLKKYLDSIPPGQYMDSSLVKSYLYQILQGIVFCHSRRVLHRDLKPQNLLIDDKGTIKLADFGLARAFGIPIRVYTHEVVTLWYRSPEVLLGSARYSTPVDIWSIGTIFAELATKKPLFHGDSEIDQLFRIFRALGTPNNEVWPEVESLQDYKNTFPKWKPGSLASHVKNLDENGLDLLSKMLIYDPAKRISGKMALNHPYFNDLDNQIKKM
Chain of CDK1/cyclinB(h) (P14635 whole entry partner): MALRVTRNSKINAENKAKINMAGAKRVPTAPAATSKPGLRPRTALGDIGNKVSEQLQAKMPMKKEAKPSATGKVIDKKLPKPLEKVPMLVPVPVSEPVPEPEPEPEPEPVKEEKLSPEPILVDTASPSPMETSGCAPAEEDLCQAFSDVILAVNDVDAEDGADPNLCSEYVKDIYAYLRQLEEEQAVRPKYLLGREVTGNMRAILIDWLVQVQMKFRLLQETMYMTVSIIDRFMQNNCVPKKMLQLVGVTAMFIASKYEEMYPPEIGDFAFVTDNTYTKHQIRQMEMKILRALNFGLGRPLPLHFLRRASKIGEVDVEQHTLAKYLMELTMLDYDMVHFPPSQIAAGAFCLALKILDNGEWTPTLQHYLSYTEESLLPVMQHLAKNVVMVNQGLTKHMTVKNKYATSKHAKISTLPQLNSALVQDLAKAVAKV

Oc1ccc(C=Cc2cc(O)cc(O)c2)cc1 [resveratrol, 3,5,4′-trihydroxystilbene] was tested, and the “percent activity of CDK1/cyclinB(h)” value (CDK1/cyclinB(h)) was 67%, the “percent activity of CDK2/cyclinA(h)” value (CDK2/cyclinA(h)) was 80% and the “percent activity of CDK2/cyclinE(h)” value (CDK2/cyclinE(h)) was 80%. For the same compound, the “percent activity of CDK5/p25(h)” value (CDK5/p25(h)) was 64%, the “percent activity of CDK5/p35(h)” value (CDK5/p35(h)) was 77% and the “percent activity of CDK6/cyclinD3(h)” value (CDK6/cyclinD3(h)) was 55%. The “percent activity of CHK2(h)” value (CHK2(h)) was 59%, the “percent activity of cKit(h)” value (cKit(h)) was 68% and the “percent activity of CSK(h)” value (CSK(h)) was 94%. For the same compound, the “percent activity of cSRC(h)” value (cSRC(h)) was 61%, the “percent activity of EGFR(h)” value (EGFR(h)) was 90% and the “percent activity of FGFR1(h)” value (FGFR1(h)) was 58%. The “percent activity of Fgr(h)” value (Fgr(h)) was 78%, the “percent activity of Flt1(h)” value (Flt1(h)) was 52% and the “percent activity of Fms(h)” value (Fms(h)) was 61%. The “percent activity of IKKα(h)” value (IKKα(h)) was 40%, the “percent activity of IKKβ(h)” value (IKKβ(h)) was 116% and the “percent activity of JNK1α1(h)” value (JNK1α1(h)) was 89%. The “percent activity of JNK3(h)” value (JNK3(h)) was 98%, the “percent activity of LIMK1(h)” value (LIMK1(h)) was 84% and the “percent activity of MAPK1(h)” value (MAPK1(h)) was 94%. The “percent activity of MAPK2(h)” value (MAPK2(h)) was 101%, the “percent activity of MEK1(h)” value (MEK1(h)) was 110% and the “percent activity of MST2(h)” value (MST2(h)) was 73%. For the same compound, the “percent activity of NEK2(h)” value (NEK2(h)) was 102%, the “percent activity of NEK7(h)” value (NEK7(h)) was 116% and the “percent activity of NLK(h)” value (NLK(h)) was 30%. The “percent activity of p70S6K(h)” value (p70S6K(h)) was 21%, the “percent activity of PAK6(h)” value (PAK6(h)) was 103% and the “percent activity of Pim-2(h)” value (Pim-2(h)) was 14%. For the same compound, the “percent activity of PKG1β(h)” value (PKG1β(h)) was 56%, the inhibition at 20 µM (Rsk2(h)) was 68% and the “percent activity of Rsk2(h)” value (Rsk2(h)) was 32%. The “percent activity of SAPK2a(h)” value (SAPK2a(h)) was 100%, the “percent activity of SAPK3(h)” value (SAPK3(h)) was 110% and the “percent activity of SAPK4(h)” value (SAPK4(h)) was 92%. The “percent activity of SGK2(h)” value (SGK2(h)) was 70%, the “percent activity of Snk(h)” value (Snk(h)) was 81% and the “percent activity of TBK1(h)” value (TBK1(h)) was 62%. For the same compound, the “percent activity of Tie2(h)” value (Tie2(h)) was 94% and the “percent activity of ZAP-70(h)” value (ZAP-70(h)) was 141%.
With O=C(O)[C@H]1O[C@@H](Oc2ccc(/C=C/c3cc(O)cc(O)c3)cc2)[C@H](O)[C@@H](O)[C@@H]1O [Res 4′-Gluc, resveratrol-4-glucuronide] the “percent activity of CDK1/cyclinB(h)” value (CDK1/cyclinB(h)) was 104%, the “percent activity of CDK2/cyclinA(h)” value (CDK2/cyclinA(h)) was 98% and the “percent activity of CDK2/cyclinE(h)” value (CDK2/cyclinE(h)) was 106%. For the same compound, the “percent activity of CDK5/p25(h)” value (CDK5/p25(h)) was 91%, the “percent activity of CDK5/p35(h)” value (CDK5/p35(h)) was 104% and the “percent activity of CDK6/cyclinD3(h)” value (CDK6/cyclinD3(h)) was 95%. The “percent activity of CHK2(h)” value (CHK2(h)) was 95%, the “percent activity of cKit(h)” value (cKit(h)) was 100% and the “percent activity of CSK(h)” value (CSK(h)) was 100%. The “percent activity of cSRC(h)” value (cSRC(h)) was 54%, the “percent activity of EGFR(h)” value (EGFR(h)) was 106% and the “percent activity of FGFR1(h)” value (FGFR1(h)) was 45%. For the same compound, the “percent activity of Fgr(h)” value (Fgr(h)) was 67%, the “percent activity of Flt1(h)” value (Flt1(h)) was 76% and the “percent activity of Fms(h)” value (Fms(h)) was 94%. For the same compound, the “percent activity of IKKα(h)” value (IKKα(h)) was 113%, the “percent activity of IKKβ(h)” value (IKKβ(h)) was 98% and the “percent activity of JNK1α1(h)” value (JNK1α1(h)) was 91%. For the same compound, the “percent activity of JNK3(h)” value (JNK3(h)) was 105%, the “percent activity of LIMK1(h)” value (LIMK1(h)) was 91% and the “percent activity of MAPK1(h)” value (MAPK1(h)) was 106%. For the same compound, the “percent activity of MAPK2(h)” value (MAPK2(h)) was 105%, the “percent activity of MEK1(h)” value (MEK1(h)) was 120% and the “percent activity of MST2(h)” value (MST2(h)) was 120%. The “percent activity of NEK2(h)” value (NEK2(h)) was 103%, the “percent activity of NEK7(h)” value (NEK7(h)) was 112% and the “percent activity of NLK(h)” value (NLK(h)) was 99%. For the same compound, the “percent activity of p70S6K(h)” value (p70S6K(h)) was 54%, the “percent activity of PAK6(h)” value (PAK6(h)) was 128% and the “percent activity of Pim-2(h)” value (Pim-2(h)) was 76%. For the same compound, the “percent activity of PKG1β(h)” value (PKG1β(h)) was 58%, the “percent activity of Rsk2(h)” value (Rsk2(h)) was 100% and the “percent activity of SAPK2a(h)” value (SAPK2a(h)) was 107%. For the same compound, the “percent activity of SAPK3(h)” value (SAPK3(h)) was 106%, the “percent activity of SAPK4(h)” value (SAPK4(h)) was 104% and the “percent activity of SGK2(h)” value (SGK2(h)) was 91%. The “percent activity of Snk(h)” value (Snk(h)) was 87%, the “percent activity of TBK1(h)” value (TBK1(h)) was 80% and the “percent activity of Tie2(h)” value (Tie2(h)) was 76%. For the same compound, the “percent activity of ZAP-70(h)” value (ZAP-70(h)) was 125%.
